Laboratory results as given in US20230123334A1, “AMINO LIPID COMPOUND, PREPARATION METHOD THEREFOR, AND APPLICATION THEREOF” (SHENZHEN SHENXIN BIOTECHNOLOGY CO., LTD., priority 2020, published 2023).

System: HEK293 cells
Test: Preliminary screening as mRNA vectors, EGFP mRNA transfection of HEK293 cells
Assay type: cell-based
Settings: EGFP mRNA 50 ng per well, 96-well plates; percentage of GFP fluorescent cells relative to total number of cells (Hoechst)
Outline: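 Screening format: EGFP mRNA transfection (50 ng/well) into HEK293 in 10% FBS-supplemented DMEM. Percent green fluorescent cells, normalised to Hoechst nuclear count, gave the value; Lipofectamine2000 was the reference transfectant.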

Compound | Absolute mRNA transfection efficiency in HEK293 cells
CCCCCCCCCCCCCCSc1nc(NCCCCCC)nc(NCCN2CCN(C)CC2)n1 [Compound D5S14N6] | 48.0%
CCCCCCCCCCCCCNc1nc(NCC2CCN(C)CC2)nc(SCCCCCCCCCC)n1 [Compound D10S10N13] | 8.5%
CCCCCCCSc1nc(NCCCCCC)nc(NCCN2CCCCC2)n1 [Compound D4S7N6] | 4.5%
CCCCCCCCSc1nc(NCCN2CCN(C)CC2)nc(SCCCCCCCC)n1 [Compound D5S8S8] | 45.2%
CCCCCCCCCCCCCCCCCCNc1nc(NCCCN2CCOCC2)nc(SCCCCCCCCCCC)n1 [Compound D8S11N18] | 0.6%
CCCCCCCCCCCCCCCCCCSc1nc(NCCN2CCOCC2)nc(SCCCCCCC)n1 [Compound D2S7S18] | 5.1%
CCCCCCCCCCCNc1nc(NCCN2CCOCC2)nc(SCCCCCCCCCC)n1 [Compound D2S10N11] | 0.2%
CCCCCCCCCCCCCCCCCCNc1nc(NCCN2CCCCC2)nc(SCCCCCC)n1 [Compound D4S6N18] | 1.8%
CCCCCCCCCCCCSc1nc(NCCCCCCCCC)nc(NCCN2CCOCC2)n1 [Compound D2S12N9] | 1.1%
CCCCCCCCCCCCCCCCSc1nc(NCCN2CCCC2)nc(SCCCCCCC)n1 [Compound D3S7S16] | 11.6%
CCCCCCCCCCCCCCCSc1nc(NCC2CCN(C)CC2)nc(SCCCCCCC)n1 [Compound D10S7S15] | 90.4%
CCCCCCCCCCCCCCCCCCNc1nc(NCCCN2CCN(C)CC2)nc(SCCCCCCCCCCCCCCC)n1 [Compound D9S15N18] | 0.3%
CCCCCCCCCCCSc1nc(NCCCCCCCC)nc(NCCCN2CCOCC2)n1 [Compound D8S11N8] | 0.3%
CCCCCCCCCCCCN(CCCCCCCCCCCC)c1nc(NCCCN2CCN(C)CC2)nc(SCCCCCCCCCCC)n1 [D9S11^2N12] | 0.0%
CCCCCCCCCCCCCCCCSc1nc(NCC2CCN(C)CC2)nc(N(CCCCCCCCCCCC)CCCCCCCCCCCC)n1 [D10S16^2N12] | 0.2%
CCCCCCCCCCCCCCCSc1nc(NCCCCCC)nc(NCCCN2CCOCC2)n1 [Compound D8S15N6] | 3.5%
CCCCCCCCCCCCCCCCCCNc1nc(NCCN(CC)CC)nc(SCCCCCCCCCCCCCCC)n1 [Compound D7S15N18] | 0.8%
CCCCCCCCCCCCCCCSc1nc(NCCCCCCCC)nc(NCCCN2CCOCC2)n1 [Compound D8S15N8] | 2.9%
CCCCCCCCCCCCSc1nc(NCCCCCCCC)nc(NCCN2CCN(C)CC2)n1 [Compound D5S12N8] | 22.6%
CCCCCCCCCCCCCCSc1nc(NCCCCCCCC)nc(NCCN(CC)CC)n1 [Compound D7S14N8] | 10.8%
CCCCCCCCCCCCCCCNc1nc(NCCN2CCN(C)CC2)nc(SCCCCCCCCCCC)n1 [Compound D5S11N15] | 20.4%
CCCCCCCCSc1nc(NCCCCCCC)nc(NCCN(CC)CC)n1 [Compound D7S8N7] | 0.7%
CCCCCCCCCCSc1nc(NCCN(CC)CC)nc(SCCCCCCC)n1 [Compound D7S7S10] | 1.7%

Compound | Absolute mRNA transfection efficiency in HEK293 cells
CCCCCCCCCCCCCNc1nc(NCCN2CCCC2)nc(SCCCCCC)n1 [Compound D3S6N13] | 7.7%
CCCCCCCCCCCCCCCSc1nc(NCCCCCC)nc(NCCCN(C)C)n1 [Compound D6S15N6] | 37.4%
CCCCCCCCCCCCNc1nc(NCCN2CCCCC2)nc(SCCCCCCCCCCCC)n1 [Compound D4S12N12] | 2.1%
CCCCCCCCCCCCCNc1nc(NCCN2CCN(C)CC2)nc(SCCCCCCCCCCC)n1 [Compound D5S11N13] | 11.2%
CCCCCCCCCCCNc1nc(NCCN2CCN(C)CC2)nc(SCCCCCCCCCC)n1 [Compound D5S10N11] | 11.0%
CCCCCCCCCCCCCCCNc1nc(NCCN2CCCCC2)nc(SCCCCCC)n1 [Compound D4S6N15] | 0.4%
CCCCCCCCCCCCCCCCNc1nc(NCCN2CCN(C)CC2)nc(SCCCCCCCCC)n1 [Compound D5S9N16] | 16.1%
CCCCCCCCCCCCCCCCCCSc1nc(NCCN2CCCC2)nc(SCCCCCC)n1 [Compound D3S6S18] | 36.8%
CCCCCCCCCCCSc1nc(NCCCCCCCC)nc(NCCCN2CCN(C)CC2)n1 [Compound D9S11N8] | 37.6%
CCCCCCCCCCCCCCCCSc1nc(NCCCCCCCCC)nc(NCCN2CCCC2)n1 [Compound D3S16N9] | 92.8%
CCCCCCCCCCCCCNc1nc(NCCN(C)C)nc(SCCCCCCCCCC)n1 [Compound D1S10N13] | 1.7%
CCCCCCCCCCCCNc1nc(NCCN2CCCCC2)nc(SCCCCCCCCCCC)n1 [Compound D4S11N12] | 8.9%
CCCCCCCCCCCCCCCNc1nc(NCCN2CCN(C)CC2)nc(SCCCCCCCC)n1 [Compound D5S8N15] | 14.9%
CCCCCCCCCCCCCCCCNc1nc(NCCN2CCOCC2)nc(SCCCCCCCCCCC)n1 [Compound D2S11N16] | 1.1%
CCCCCCCCCCCCNc1nc(NCCN(C)C)nc(SCCCCCCCCC)n1 [Compound D1S9N12] | 30.2%
CCCCCCCNc1nc(NCCN(C)C)nc(SCCCCCC)n1 [Compound D1S6N7] | 2.3%
CCCCCCCCCCCCCCCCCCSc1nc(NCCN2CCN(C)CC2)nc(SCCCCCC)n1 [Compound D5S6S18] | 55.1%
CCCCCCCCCCSc1nc(NCCN(C)C)nc(SCCCCCCCC)n1 [Compound D1S8S10] | 8.6%
CCCCCCCCCCCCCCCCCCSc1nc(NCCCCCCC)nc(NCCCN(C)C)n1 [Compound D6S18N7] | 87.5%
CCCCCCCCCCCSc1nc(NCCN2CCCCC2)nc(SCCCCCCC)n1 [Compound D4S7S11] | 8.0%
CCCCCCCCCCCCSc1nc(NCC2CCN(C)CC2)nc(SCCCCCCC)n1 [Compound D10S7S12] | 80.4%
CCCCCCCCNc1nc(NCC2CCN(C)CC2)nc(SCCCCCC)n1 [Compound D10S6N8] | 1.4%
CCCCCCCCCCCCCCCSc1nc(NCCCN(C)C)nc(N(CCCCCCCCCCCC)CCCCCCCCCCCC)n1 [D6S15^2N12] | 2.9%

Compound | Absolute mRNA transfection efficiency in HEK293 cells
CCCCCCCCCCCSc1nc(NCCN2CCCCC2)nc(SCCCCCCCC)n1 [Compound D4S8S11] | 10.9%
CCCCCCCCCCCCCCCCNc1nc(NCC2CCN(C)CC2)nc(SCCCCCCCC)n1 [Compound D10S8N16] | 36.4%
CCCCCCCCCCCCCCCCSc1nc(NCCN2CCOCC2)nc(SCCCCCCC)n1 [Compound D2S7S16] | 13.9%
CCCCCCCCCCCCCNc1nc(NCC2CCN(C)CC2)nc(SCCCCCCC)n1 [Compound D10S7N13] | 70.8%
CCCCCCCCCCCCCCCSc1nc(NCCCCCCCC)nc(NCC2CCN(C)CC2)n1 [Compound D10S15N8] | 12.9%
CCCCCCCCCCCCCCCCSc1nc(NCCCCCC)nc(NCCN(C)C)n1 [Compound D1S16N6] | 54.2%
CCCCCCCCCSc1nc(NCCCN2CCN(C)CC2)nc(SCCCCCCCC)n1 [Compound D9S8S9] | 85.2%
CCCCCCSc1nc(NCCCN(C)C)nc(SCCCCCC)n1 [Compound D6S6S6] | 12.6%
CCCCCCCCCCCCCCCCNc1nc(NCC2CCN(C)CC2)nc(SCCCCCCCCCCCC)n1 [Compound D10S12N16] | 3.4%
CCCCCCCCCCCCSc1nc(NCCN(CC)CC)nc(SCCCCCCC)n1 [Compound D7S7S12] | 5.8%
CCCCCCCCCCCCCCCCSc1nc(NCCCCCCCCCCCC)nc(NCCN2CCCC2)n1 [Compound D3S16N12] | 1.7%
CCCCCCCCCNc1nc(NCCCN2CCN(C)CC2)nc(SCCCCCC)n1 [Compound D9S6N9] | 0.9%
CCCCCCCCCCCCCNc1nc(NCCCN2CCOCC2)nc(SCCCCCC)n1 [Compound D8S6N13] | 0.0%
CCCCCCCCCCCCCCCSc1nc(NCCCCCCCCCCCC)nc(NCCN2CCCCC2)n1 [Compound D4S15N12] | 1.6%
CCCCCCCCCCCCNc1nc(NCCN2CCN(C)CC2)nc(SCCCCCCC)n1 [Compound D5S7N12] | 23.0%
CCCCCCCCCCCCCNc1nc(NCCN2CCOCC2)nc(SCCCCCCC)n1 [Compound D2S7N13] | 6.2%
CCCCCCCCCCCCCNc1nc(NCCCN2CCOCC2)nc(SCCCCCCCCCC)n1 [Compound D8S10N13] | 0.2%
CCCCCCCCCCCCNc1nc(NCCN2CCOCC2)nc(SCCCCCCC)n1 [Compound D2S7N12] | 3.0%
CCCCCCCCCCSc1nc(NCCCCCCCCC)nc(NCCCN2CCOCC2)n1 [Compound D8S10N9] | 0.1%
CCCCCCCCCCCCCCCCSc1nc(NCCCCCCCCCCCCC)nc(NCCN(CC)CC)n1 [Compound D7S16N13] | 2.9%
CCCCCCCCCCCCNc1nc(NCCN2CCN(C)CC2)nc(SCCCCCCCCCC)n1 [Compound D5S10N12] | 3.6%
